According to PubChem BioAssay AID1919013 (Molecular Pharmacology Branch, DTP, NCI, 2023):
pIC50: −log10 of the molar value. “And” between values parts separate entries of the source, which are not always exact repeats. Equal entries are not always repeated.

Test system: LG0703-F498-PDC complex spheroid growth
Experiment: Anticancer human tumor LG0703-F498-PDC patient-derived lung adenocarcinoma cell line growth inhibition [AhR]
Conditions: for viability, T/C: stronger effect = lower value
From the text: Multicellular complex tumor spheroid response to aryl hydrocarbon receptor antagonists in combination with a variety of drugs and investigational agents in selected tumor cell lines
The current study was undertaken to assess response to aryl hydrocarbon receptor antagonists in combination with standard-of-care drugs and investigational agents in solid tumor complex spheroid models. Complex spheroids include a stromal component modeled by human endothelial cells (HUVEC) and fibroblasts modeled by human mesenchymal stem cells (MSCs). The concentration ranges selected for each drug and investigational agent were based upon clinically achievable concentrations if the clinical Cmax of the agent was known.
Compounds. The drugs and investigational agents: BAY 2416964 (NSC825713), GNF351 (NSC835774), CH-223191 (NSC835775), CPI-455 (NSC825282), aza-TdCyd (NSC777586), decitabine (NSC127716), belinostat (NSC758774), entinostat (NSC756642), pevonedistat (NSC761192), tazemetostat (NSC777109), talazoparib (NSC765396), olaparib (NSC753686), selinexor (NSC780203), nedisertib (M3814, NSC802822), bortezomib (NSC756655), venetoclax (NSC766270), doxorubicin (NSC123127), elimusertib (BAY189344, NSC800525), ceralasertib (AZD6738, NSC777638), TAK-243 (NSC785004), alisertib (NSC759677), etoposide (NSC141540), topotecan (NSC609699), eribulin (NSC707389), gemcitabine (NSC613327), carboplatin (NSC241240), cisplatin (NSC119875), and SN-38 (NSC673596) were obtained from the National Cancer Institute (NCI) Developmental Therapeutics Program Chemical Repository (32). The FDA-approved anticancer drug set is available from the Developmental Therapeutics Program at https://dtp.cancer.gov/organization/dscb/obtaining/available plates.htm. […] The stock solutions were prepared in dimethyl sulfoxide (DMSO, Sigma-Aldrich, St. Louis, MO, cat. D2650), except for the platinum compounds which were prepared in saline (Quality Biological, Gaithersburg, MD, cat. 114-055-101), at 800-fold the tested concentration and stored at -70 degrees C prior to their use. All drugs and investigational agents were tested over a range starting from a high concentration at or near the clinical Cmax and decreasing in half-log increments. If the clinical Cmax for an agent had not been determined, the highest concentration tested was 10 microM (Table 1).
Cell Culture. All cells were maintained in an incubator at 37 degrees C and 5% CO2 with 95% humidity. The PDC lines were cultured according to standard operating procedures established by the NCI PDMR (https://pdmr.cancer.gov). Briefly, all PDCs were thawed and cultured in Matrigel-coated flasks prepared with a working solution of 1X Ham's F-12 nutrient mix, without supplementation (Invitrogen, Waltham, MA, cat. 11765054), 100 U/mL penicillin-streptomycin (Invitrogen, cat. 15140122), and 2.5% Matrigel (Corning Inc., Corning, NY, cat. 354248) for the first three passages. All PDCs were cultured in complete DMEM/F-12 media containing advanced DMEM/F-12 (Invitrogen, cat. 12634028), 4.9% defined fetal bovine serum, heat inactivated (HyClone Laboratories Inc., Logan, UT, cat. SH30070.03HI), 389 ng/mL hydrocortisone (Sigma-Aldrich, cat. H4001), 9.7 ng/mL human EGF recombinant protein (Invitrogen, cat. PHG0313), 23.4 microg/mL adenine (Sigma-Aldrich, cat. A2786), 97.3 U/mL penicillin-streptomycin (Invitrogen, cat. 15140122), 1.9 mM L-glutamine (Invitrogen, cat. 25030081), and 9.7 microM Y-27632 dihydrochloride (Tocris Bioscience, Bristol, United Kingdom, cat. 1254). The PDCs were cultured in complete DMEM/F12 media without 10 microM Y-27632 dihydrochloride for at least two passages prior to the screen. The established cell lines NCI-H1341 and […] were cultured in DMEM/F-12, HEPES (Invitrogen, cat. 11330032), 5% defined fetal bovine serum (HyClone Laboratories Inc., cat. SH30070.03), ITS premix universal culture supplement [insulin (5 microg/mL), transferrin (5 microg/mL), and selenious acid (5 ng/mL)] […]

[1] = curve of first compound, second compound 0.1 µM
[2] = curve of first compound, second compound 0.316 µM
[3] = curve of first compound, second compound 1 µM
[4] = curve of first compound, second compound 3.16 µM
[5] = curve of first compound, second compound 10 µM
[6] = second compound 0.1 µM, first compound 0.0316 µM
[7] = second compound 0.1 µM, first compound 0.1 µM
[8] = second compound 0.1 µM, first compound 0.316 µM
[9] = second compound 0.1 µM, first compound 1 µM
[10] = second compound 0.1 µM, first compound 3.16 µM
[11] = second compound 0.1 µM, first compound 10 µM
[12] = second compound 0.316 µM, first compound 0.0316 µM
[13] = second compound 0.316 µM, first compound 0.1 µM
[14] = second compound 0.316 µM, first compound 0.316 µM
[15] = second compound 0.316 µM, first compound 1 µM
[16] = second compound 0.316 µM, first compound 3.16 µM
[17] = second compound 0.316 µM, first compound 10 µM
[18] = second compound 1 µM, first compound 0.0316 µM
[19] = second compound 1 µM, first compound 0.1 µM
[20] = second compound 1 µM, first compound 0.316 µM
[21] = second compound 1 µM, first compound 1 µM
[22] = second compound 1 µM, first compound 3.16 µM
[23] = second compound 1 µM, first compound 10 µM
[24] = second compound 3.16 µM, first compound 0.0316 µM
[25] = second compound 3.16 µM, first compound 0.1 µM
[26] = second compound 3.16 µM, first compound 0.316 µM
[27] = second compound 3.16 µM, first compound 1 µM
[28] = second compound 3.16 µM, first compound 3.16 µM
[29] = second compound 3.16 µM, first compound 10 µM
[30] = second compound 10 µM, first compound 0.0316 µM
[31] = second compound 10 µM, first compound 0.1 µM
[32] = second compound 10 µM, first compound 0.316 µM
[33] = second compound 10 µM, first compound 1 µM
[34] = second compound 10 µM, first compound 3.16 µM
[35] = second compound 10 µM, first compound 10 µM
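Also: luminescence taken as a proxy for viable cell amount.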
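For viability, T/C in this document: percent of DMSO vehicle control where 100% means growth equal to vehicle.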

| Compound | pIC50 [1] | pIC50 [2] | pIC50 [3] | pIC50 [4] | pIC50 [5] | viability, T/C [6] [%] | viability, T/C [7] [%] | viability, T/C [8] [%] | viability, T/C [9] [%] | viability, T/C [10] [%] | viability, T/C [11] [%] | viability, T/C [12] [%] | viability, T/C [13] [%] | viability, T/C [14] [%] | viability, T/C [15] [%] | viability, T/C [16] [%] | viability, T/C [17] [%] | viability, T/C [18] [%] | viability, T/C [19] [%] | viability, T/C [20] [%] | also measured |
| --- | --- | --- | --- | --- | --- | --- | --- | --- | --- | --- | --- | --- | --- | --- | --- | --- | --- | --- | --- | --- | --- |
| Nc1ccccc1NC(=O)c1ccc(CNC(=O)OCc2cccnc2)cc1 + Cc1cncc(-c2nc(NCCc3c[nH]c4ccccc34)c3ncn(C(C)C)c3n2)c1 | 6.07 | 6.25 | 6.24 | > 7.50 | > 7.50 | 93 | 89.2 | 68.7 | 53.4 | 4.49 | 0.69 | 100 | 90.4 | 67.2 | 34.5 | 3.29 | 0.43 | 78.4 | 87.5 | 62.8 | viability, T/C [21]: 36.5%; viability, T/C [22]: 2.86%; viability, T/C [23]: 0.16%; viability, T/C [24]: 34%; viability, T/C [25]: 23.7%; viability, T/C [26]: 21%; viability, T/C [27]: 10.6%; viability, T/C [28]: 3.34%; viability, T/C [29]: 0.15%; viability, T/C [30]: 0.75%; viability, T/C [31]: 0.81%; viability, T/C [32]: 0.77%; viability, T/C [33]: 0.69%; viability, T/C [34]: 0.77%; viability, T/C [35]: 0.17% |
| COc1cc(Nc2ncc3c(n2)-c2ccc(Cl)cc2C(c2c(F)cccc2OC)=NC3)ccc1C(=O)O + Cc1cncc(-c2nc(NCCc3c[nH]c4ccccc34)c3ncn(C(C)C)c3n2)c1 | 5.40 | 5.28 | 5.55 | > 7.50 | > 7.50 | 88.6 | 77.1 | 65.4 | 65.8 | 60.2 | 35 | 81.8 | 80.5 | 58.9 | 78.2 | 58.1 | 38.2 | 94.4 | 70.7 | 63 | viability, T/C [21]: 63.7%; viability, T/C [22]: 55.9%; viability, T/C [23]: 35.1%; viability, T/C [24]: 45.7%; viability, T/C [25]: 33.3%; viability, T/C [26]: 38.1%; viability, T/C [27]: 34.6%; viability, T/C [28]: 18.9%; viability, T/C [29]: 10.2%; viability, T/C [30]: 1.81%; viability, T/C [31]: 1.7%; viability, T/C [32]: 2.07%; viability, T/C [33]: 1.87%; viability, T/C [34]: 1.84%; viability, T/C [35]: 3.35% |
| COc1cc(Nc2ncc3c(n2)-c2ccc(Cl)cc2C(c2c(F)cccc2OC)=NC3)ccc1C(=O)O | – | – | – | – | – | – | – | – | – | – | – | – | – | – | – | – | – | – | – | – | viability, T/C (compound 0.0316 µM): 87.2% and 100% and 93.8%; viability, T/C (compound 0.1 µM): 81% and 83.4% and 82.2%; viability, T/C (compound 0.316 µM): 67.8% and 64.2% and 72.7%; viability, T/C (compound 1 µM): 76.2% and 77.1% and 73.1%; viability, T/C (compound 3.16 µM): 67% and 61% and 63.3%; viability, T/C (compound 10 µM): 37.5% and 36.6% and 41.4%; pIC50 (curve of compound): 5.22 and 5.30 and 5.17 |
| Cc1ccccc1N=Nc1ccc(NC(=O)c2ccnn2C)c(C)c1 | – | – | – | – | – | – | – | – | – | – | – | – | – | – | – | – | – | – | – | – | viability, T/C (compound 1 µM): 90.5% [middle of 20 runs]; viability, T/C (compound 3.16 µM): 85.7% [middle of 20 runs]; pIC50 (compound alone, run of 06/14/2022): < 5.00 |
